Tests used:
T. reesei [1] = assay: Effects of several surfactants on morphology (flocculation / pellet formation) of T. reesei; type: cell-based, Trichoderma reesei RUT C30; conditions: for Effective in changing morphology?: compared with 0.5 g/L and 1 g/L surfactant concentrations
Text: The effects of several surfactants on the morphology of T. reesei were studied. TABLE 1 summarizes the observations of the effects of several surfactants regarding to flocculation or formation of pellets in T. reesei. […] All surfactants listed in TABLE 1 were compared with 0.5 g/L and 1 g/L surfactant concentrations.

T. reesei [2] = assay: Shake flask growth of T. reesei with Triton X-100 (Example 6): morphology, growth, enzyme activity; type: cell-based, Trichoderma reesei RUT C30
Method: The effect of growing a fungus in a growth medium containing Triton X-100 was tested. A culture was grown on a growth medium containing (g/L): (NH4)2SO4 1.4, KH2PO4 2, MgSO4.7H2O 0.3, CaCl2.2H2O 0.4, urea 0.3, peptone 1.0, Tween-80 0.2, FeSO4.7H2O 0.005, MnSO4.H2O 0.0016, ZnSO4.7H2O 0.0014, CoCl2 0.002, and lactose 10.0. Initially the unadjusted pH was 5.5 after autoclaving.
Test cultures were grown in 50 mL volume in 250 mL flasks at 28° C. in a Que Orbital shaker (Model 4703, Parkersburg, W.Va., USA) at 250 rpm without pH control, initially at 5.5, for 7 days. Triton X-100 was tested at the following concentrations (g/L): 0.1, 0.3, 0.6, 0.8, 1.0, 1.5.
Cultures were followed for 7 days and visually checked for bulk morphology. Periodic monitoring was done aseptically by collecting a 2 mL representative sample every 24 hrs to measure cell concentration, enzyme activity, sugar concentration, and residual surfactant amounts.

| Substance | Size of generally uniform pellets formed (T. reesei [1]) | Effective in changing morphology? (T. reesei [1]) | global average doubling time (T. reesei [2]; across tested Triton concentrations, following the lag phase) [h] | average increase in the enzyme activity (T. reesei [2]; additive concentration in excess of 0.1 g/L) [%] | lag compared to the surfactant free system (T. reesei [2]; concentrations above 0.1 g/L) | concentration producing "pellet" growth (T. reesei [2]; tested at 0.1-1.5 g/L, 7 days, 28° C., 250 rpm) | Description: tendency toward cell flocculation with increasing surfactant concentration (T. reesei [1]; 0.5 g/L and 1 g/L surfactant, flocculation is correlated with pellet formation) |
| --- | --- | --- | --- | --- | --- | --- | --- |
| 4-(1,1,3,3-tetramethylbutyl)phenyl-polyethylene glycol [Triton X-100] | uniform ~1 mm pellets | YES | 9.1 ± 1.8 | 73±12 | one-day | greater than 0.3 g/L | – |
| polyoxyethylene sorbitan monolaurate [TWEEN ® 20] | – | YES | – | – | – | – | shows tendencies toward increased |

From patent publication US20110027858A1, “Method of Modifying Fungal Morphology” (University of Akron, priority 2009, published 2011)
